In patent publication US8192962B2, “Processes for detecting toxic substances” (Daikin Industries, Ltd., priority 2001, dated 2012):

System: Genes belonging to other category
Test: DNA chip mRNA expression in yeast, genes belonging to other category (Table 9)
Type: cell-based, Saccharomyces cerevisiae S288C
In short: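 Expression change after 2 h toxicant exposure (growth-inhibiting, sub-lethal) of log-phase S. cerevisiae S288C at 25° C. Oligo-dT-purified mRNA was labeled with Cy3-dUTP or Cy5-dUTP and hybridized >12 h at 65° C. to a genome-wide chip; ratio of scanned fluorescence to control.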

N#Cc1c(Cl)c(Cl)c(Cl)c(C#N)c1Cl [(9), 2,4,5,6-tetrachloro-1,3-benzenedicarbonitrile]
The level of expressed mRNA in the presence of chemical substance/The level of expressed mRNA in the absence of chemical substance (yeast gene YER009W): 0.7 | The level of expressed mRNA in the presence of chemical substance/The level of expressed mRNA in the absence of chemical substance (yeast gene YER012W): 6.7 | The level of expressed mRNA in the presence of chemical substance/The level of expressed mRNA in the absence of chemical substance (yeast gene YER029C): 1.4 | The level of expressed mRNA in the presence of chemical substance/The level of expressed mRNA in the absence of chemical substance (yeast gene YER039C): 1.2 | The level of expressed mRNA in the presence of chemical substance/The level of expressed mRNA in the absence of chemical substance (yeast gene YER094C): 2.3 | The level of expressed mRNA in the presence of chemical substance/The level of expressed mRNA in the absence of chemical substance (yeast gene YER098W): 2.8 | The level of expressed mRNA in the presence of chemical substance/The level of expressed mRNA in the absence of chemical substance (yeast gene YER107C): 0.4 | The level of expressed mRNA in the presence of chemical substance/The level of expressed mRNA in the absence of chemical substance (yeast gene YER130C): 0.5 | The level of expressed mRNA in the presence of chemical substance/The level of expressed mRNA in the absence of chemical substance (yeast gene YER136W): 1.4 | The level of expressed mRNA in the presence of chemical substance/The level of expressed mRNA in the absence of chemical substance (yeast gene YER177W): 1.8 | The level of expressed mRNA in the presence of chemical substance/The level of expressed mRNA in the absence of chemical substance (yeast gene YER184C): 4.6 | The level of expressed mRNA in the presence of chemical substance/The level of expressed mRNA in the absence of chemical substance (yeast gene YFL022C): 0.5 | The level of expressed mRNA in the presence of chemical substance/The level of expressed mRNA in the absence of chemical substance (yeast gene YFL028C): 2.7 | The level of expressed mRNA in the presence of chemical substance/The level of expressed mRNA in the absence of chemical substance (yeast gene YFL038C): 2.1 | The level of expressed mRNA in the presence of chemical substance/The level of expressed mRNA in the absence of chemical substance (yeast gene YFL043C): 2.2 | The level of expressed mRNA in the presence of chemical substance/The level of expressed mRNA in the absence of chemical substance (yeast gene YFR050C): 3.1 | The level of expressed mRNA in the presence of chemical substance/The level of expressed mRNA in the absence of chemical substance (yeast gene YGL011C): 2.0 | The level of expressed mRNA in the presence of chemical substance/The level of expressed mRNA in the absence of chemical substance (yeast gene YGL048C): 2.4 | The level of expressed mRNA in the presence of chemical substance/The level of expressed mRNA in the absence of chemical substance (yeast gene YGL158W): −0.4 | The level of expressed mRNA in the presence of chemical substance/The level of expressed mRNA in the absence of chemical substance (yeast gene YGL208W): 1.4 | The level of expressed mRNA in the presence of chemical substance/The level of expressed mRNA in the absence of chemical substance (yeast gene YGL229C): 1.8 | The level of expressed mRNA in the presence of chemical substance/The level of expressed mRNA in the absence of chemical substance (yeast gene YGR120C): 0.3 | The level of expressed mRNA in the presence of chemical substance/The level of expressed mRNA in the absence of chemical substance (yeast gene YGR131W): 1.9 | The level of expressed mRNA in the presence of chemical substance/The level of expressed mRNA in the absence of chemical substance (yeast gene YGR136W): 2.1 | The level of expressed mRNA in the presence of chemical substance/The level of expressed mRNA in the absence of chemical substance (yeast gene YGR189C): 0.3 | The level of expressed mRNA in the presence of chemical substance/The level of expressed mRNA in the absence of chemical substance (yeast gene YGR213C): 7.5 | The level of expressed mRNA in the presence of chemical substance/The level of expressed mRNA in the absence of chemical substance (yeast gene YGR257C): 1.5 | The level of expressed mRNA in the presence of chemical substance/The level of expressed mRNA in the absence of chemical substance (yeast gene YHL024W): 2.1 | The level of expressed mRNA in the presence of chemical substance/The level of expressed mRNA in the absence of chemical substance (yeast gene YHR004C): 1.1 | The level of expressed mRNA in the presence of chemical substance/The level of expressed mRNA in the absence of chemical substance (yeast gene YHR012W): 4.9 | The level of expressed mRNA in the presence of chemical substance/The level of expressed mRNA in the absence of chemical substance (yeast gene YHR071W): 1.0 | The level of expressed mRNA in the presence of chemical substance/The level of expressed mRNA in the absence of chemical substance (yeast gene YHR109W): 2.4 | The level of expressed mRNA in the presence of chemical substance/The level of expressed mRNA in the absence of chemical substance (yeast gene YHR124W): 3.0 | The level of expressed mRNA in the presence of chemical substance/The level of expressed mRNA in the absence of chemical substance (yeast gene YHR139C): 107.2 | The level of expressed mRNA in the presence of chemical substance/The level of expressed mRNA in the absence of chemical substance (yeast gene YHR142W): 0.4 | The level of expressed mRNA in the presence of chemical substance/The level of expressed mRNA in the absence of chemical substance (yeast gene YHR160C): 2.3 | The level of expressed mRNA in the presence of chemical substance/The level of expressed mRNA in the absence of chemical substance (yeast gene YHR163W): 1.4 | The level of expressed mRNA in the presence of chemical substance/The level of expressed mRNA in the absence of chemical substance (yeast gene YHR171W): 2.1 | The level of expressed mRNA in the presence of chemical substance/The level of expressed mRNA in the absence of chemical substance (yeast gene YIL123W): 0.1 | The level of expressed mRNA in the presence of chemical substance/The level of expressed mRNA in the absence of chemical substance (yeast gene YIL140W): 0.7 | The level of expressed mRNA in the presence of chemical substance/The level of expressed mRNA in the absence of chemical substance (yeast gene YIR018W): 4.0 | The level of expressed mRNA in the presence of chemical substance/The level of expressed mRNA in the absence of chemical substance (yeast gene YJL073W): 1.7 | The level of expressed mRNA in the presence of chemical substance/The level of expressed mRNA in the absence of chemical substance (yeast gene YJL089W): 1.6 | The level of expressed mRNA in the presence of chemical substance/The level of expressed mRNA in the absence of chemical substance (yeast gene YJL113W): 1.3 | The level of expressed mRNA in the presence of chemical substance/The level of expressed mRNA in the absence of chemical substance (yeast gene YJL116C): 2.4 | The level of expressed mRNA in the presence of chemical substance/The level of expressed mRNA in the absence of chemical substance (yeast gene YJL146W): 1.0 | The level of expressed mRNA in the presence of chemical substance/The level of expressed mRNA in the absence of chemical substance (yeast gene YJR004C): 0.3 | The level of expressed mRNA in the presence of chemical substance/The level of expressed mRNA in the absence of chemical substance (yeast gene YJR036C): 1.4 | The level of expressed mRNA in the presence of chemical substance/The level of expressed mRNA in the absence of chemical substance (yeast gene YJR058C): 1.9 | The level of expressed mRNA in the presence of chemical substance/The level of expressed mRNA in the absence of chemical substance (yeast gene YJR086W): 1.4
